In the supplement of paper PMC10331698:
± gives the standard deviation of the averaged measurements.

Legend:
Assay in all cases: level (log10 ratio to DMSO vehicle control); higher = higher biomarker level / cell amount than vehicle control
Conditions in all cases: in DMSO
[1] = compound: NS(=O)(=O)C(F)(F)C(F)(F)C(F)(F)C(F)(F)C(F)(F)C(F)(F)F [Perfluorohexanesulfonamide]
Procedure: (§1)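 BioMAP Diversity Plus panel of 12 human primary cell co-culture systems (3C, 4H, LPS, SAg, BT, BF4T, BE3C, CASM3C, HDF3CGF, KF3CT, MyoF, Mphg). Compounds were added 1 h before stimulation and left for 24 h (MyoF 48 h; BT 72 h for soluble read-outs or 6 d for IgG). Biomarkers were read by ELISA, cytotoxicity by SRB, PBMC viability and proliferation by Alamar Blue. Each well value was divided by the mean of 8 DMSO control wells on the same plate and log10 transformed; duplicate blinded samples were tested at 4 concentrations.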

[2] = compound: FC(F)(F)C(F)(F)C(F)(F)CC1CO1 [1H,1H-Heptafluorobutyl epoxide]
Procedure: as §1

Heptafluorobutyl iodide = compound: FC(F)(F)C(F)(F)C(F)(F)CI [Heptafluorobutyl iodide]
Procedure: as §1

[3] = compound: NC(=O)C(F)(F)C(F)(F)C(F)(F)C(F)F
Procedure: as §1

[4] = compound: O=S(=O)(F)C(F)(F)C(F)(F)C(F)(F)C(F)(F)C(F)(F)C(F)(F)C(F)(F)C(F)(F)F [Perfluorooctanesulfonyl fluoride]
Procedure: as §1

[5] = compound: O=C(O)C=CC(F)(C(F)(F)F)C(F)(F)F [3-(Perfluoroisopropyl)-2-propenoic acid]
Procedure: as §1

Test System | level (log10) ([1]; 6700 nM) | level (log10) ([1]; 20000 nM) | level (log10) ([1]; 60000 nM) | level (log10) ([2]; 6700 nM) | level (log10) ([2]; 20000 nM) | level (log10) ([2]; 60000 nM) | level (log10) (Heptafluorobutyl iodide; 6700 nM) | level (log10) (Heptafluorobutyl iodide; 20000 nM) | level (log10) (Heptafluorobutyl iodide; 60000 nM) | level (log10) ([3]; 6700 nM) | level (log10) ([3]; 20000 nM) | level (log10) ([3]; 60000 nM) | level (log10) ([4]; 6700 nM) | level (log10) ([4]; 20000 nM) | level (log10) ([4]; 60000 nM) | level (log10) ([5]; 6700 nM) | level (log10) ([5]; 20000 nM) | level (log10) ([5]; 60000 nM)
BT:PBMC Cytotoxicity | 0.0405 ± 0.011 | 0.047 ± 0.027 | 0.0775 ± 0.011 | 0.0175 ± 0.026 | -0.0025 ± 0.022 | 0.017 ± 0.013 | 0.0515 ± 0.029 | 0.01 ± 0.0028 | 0.0125 ± 0.032 | -0.001 ± 0.0042 | -0.0015 ± 0.0035 | 0.016 | -0.001 ± 0.016 | -0.01 ± 0.041 | -0.005 ± 0.0071 | -0.016 ± 0.0042 | 0.002 ± 0.0042 | 0.021 ± 0.0057
BT:Secreted IgG | -0.024 ± 0.016 | -0.0005 ± 0.046 | -0.133 ± 0.037 | 0.017 ± 0.038 | -0.0175 ± 0.043 | 0.008 ± 0.033 | 0.038 ± 0.02 | 0.0585 ± 0.018 | 0.0375 ± 0.028 | 0.0115 ± 0.073 | 0.026 ± 0.0085 | -0.0005 ± 0.026 | 0.0025 ± 0.026 | 0.0185 ± 0.0035 | 0.004 ± 0.03 | -0.041 ± 0.048 | -0.0035 ± 0.016 | -0.0205 ± 0.013
BT:sIL-2 | -0.018 ± 0.11 | -0.0415 ± 0.015 | 0.0705 ± 0.00071 | -0.0245 ± 0.0092 | -0.055 ± 0.15 | 0.022 ± 0.18 | 0.001 ± 0.071 | 0.0735 ± 0.028 | -0.027 ± 0.058 | 0.002 ± 0.058 | -0.056 ± 0.051 | 0.04 ± 0.0099 | -0.038 ± 0.058 | -0.001 ± 0.042 | 0 ± 0.1 | 0.029 ± 0.058 | -0.049 ± 0.12 | 0.001 ± 0.0085
BT:sIL-6 | 0.013 ± 0.09 | -0.0025 ± 0.061 | -0.0455 ± 0.037 | 0.002 ± 0.0014 | -0.023 ± 0.042 | -0.0725 ± 0.071 | 0.0525 ± 0.0092 | 0.0485 ± 0.0035 | 0.003 ± 0.014 | 0.0315 ± 0.074 | -0.0335 ± 0.023 | -0.0795 ± 0.11 | -0.055 ± 0.037 | -0.021 ± 0.047 | -0.037 ± 0.048 | 0.032 ± 0.089 | -0.0455 ± 0.056 | -0.025 ± 0.03
BT:sIL-17A | -0.155 ± 0.069 | -0.072 ± 0.069 | -0.026 ± 0.051 | -0.0185 ± 0.022 | 0.0025 ± 0.033 | -0.033 ± 0.067 | 0.009 ± 0.02 | 0.009 ± 0.045 | -0.176 ± 0.11 | 0.059 ± 0.033 | 0.025 ± 0.19 | -0.0885 ± 0.32 | -0.047 ± 0.098 | -0.176 ± 0.021 | -0.112 ± 0.021 | -0.01 ± 0.047 | 0.024 ± 0.14 | -0.124 ± 0.13
BT:sTNF-alpha | -0.013 ± 0.12 | -0.027 ± 0.065 | 0.068 ± 0.09 | -0.042 ± 0.12 | -0.038 ± 0.02 | -0.123 ± 0.19 | -0.035 ± 0.22 | 0.149 ± 0.096 | 0.0905 ± 0.069 | 0.0475 ± 0.19 | -0.0695 ± 0.0035 | -0.0215 ± 0.047 | 0.0075 ± 0.044 | -0.0215 ± 0.0092 | -0.041 ± 0.15 | -0.0275 ± 0.04 | -0.149 ± 0.1 | -0.028 ± 0.03
LPS:IL-1alpha | -0.0075 ± 0.053 | 0.032 ± 0.013 | 0.0185 ± 0.0078 | -0.027 ± 0.023 | -0.0115 ± 0.023 | 0.0085 ± 0.022 | 0.019 ± 0.11 | 0.0205 ± 0.023 | 0.0485 ± 0.029 | 0.009 ± 0.011 | -0.0045 ± 0.015 | 0.0015 ± 0.06 | 0.0065 ± 0.015 | 0.024 ± 0.016 | 0.0105 ± 0.012 | 0.025 ± 0.034 | 0.0195 ± 0.05 | 0.0605 ± 0.023
LPS:M-CSF | -0.022 ± 0.016 | -0.0155 ± 0.0021 | -0.081 ± 0.0057 | -0.019 ± 0.02 | 0.0005 ± 0.036 | 0.0255 ± 0.053 | -0.0225 ± 0.0064 | 0.007 ± 0.023 | 0.0065 ± 0.011 | -0.013 ± 0.028 | -0.011 ± 0.0014 | 0.0065 ± 0.023 | -0.005 ± 0.021 | 0.0045 ± 0.0092 | 0.006 ± 0.017 | -0.011 ± 0.041 | -0.0065 ± 0.0092 | 0.0035 ± 0.0035
LPS:SRB | -0.012 ± 0.0071 | -0.017 ± 0.0057 | -0.0975 ± 0.029 | 0.0085 ± 0.013 | 0.002 | -0.005 ± 0.0071 | -0.0035 ± 0.0021 | -0.0095 ± 0.0021 | 0.0045 ± 0.021 | -0.011 ± 0.0071 | -0.006 ± 0.0042 | -0.0105 ± 0.00071 | -0.008 ± 0.0071 | -0.0025 ± 0.0064 | -0.002 ± 0.013 | -0.0015 ± 0.018 | -0.011 ± 0.016 | -0.0115 ± 0.028
LPS:sPGE2 | 0.088 ± 0.014 | 0.13 ± 0.032 | 0.207 ± 0.046 | 0.007 ± 0.03 | 0.005 ± 0.05 | 0.0105 ± 0.00071 | -0.0175 ± 0.026 | 0.0095 ± 0.064 | 0.0105 ± 0.064 | -0.0045 ± 0.028 | -0.0005 ± 0.005 | 0.0315 ± 0.036 | 0.0045 ± 0.039 | -0.0015 ± 0.005 | -0.0265 ± 0.056 | 0.01 ± 0.065 | 0.046 ± 0.023 | 0.0575 ± 0.025
LPS:sTNF-alpha | -0.0515 ± 0.022 | -0.02 ± 0.041 | -0.0325 ± 0.079 | -0.003 ± 0.014 | -0.0055 ± 0.012 | -0.014 ± 0.0085 | -0.009 ± 0.017 | -0.0095 ± 0.016 | -0.009 ± 0.023 | -0.0095 ± 0.0035 | -0.0095 ± 0.022 | -0.003 ± 0.031 | -0.009 ± 0.0057 | 0 ± 0.0014 | -0.0015 ± 0.013 | 0.003 ± 0.1 | 0.0345 ± 0.057 | 0.0395 ± 0.03
SAg:CCL2/MCP-1 | -0.0065 ± 0.00071 | -0.0185 ± 0.0035 | -0.085 ± 0.027 | 0.0055 ± 0.0035 | -0.009 ± 0.0071 | -0.025 ± 0.017 | -0.0095 ± 0.0078 | -0.0025 ± 0.00071 | 0.01 ± 0.011 | -0.0145 ± 0.026 | -0.024 ± 0.013 | 0.0115 ± 0.03 | 0.0135 ± 0.0035 | -0.018 ± 0.0042 | 0.0035 ± 0.029 | -0.003 ± 0.0042 | -0.0005 ± 0.016 | -0.0055 ± 0.0064
SAg:CD38 | 0.0495 ± 0.056 | 0.0225 ± 0.061 | -0.141 ± 0.12 | 0.0025 ± 0.012 | -0.025 ± 0.0085 | -0.0125 ± 0.03 | -0.0205 ± 0.021 | -0.027 ± 0.016 | -0.017 ± 0.031 | -0.034 ± 0.014 | -0.027 ± 0.02 | -0.0295 ± 0.0064 | -0.0015 ± 0.039 | 0.0035 ± 0.0092 | 0.0145 ± 0.005 | -0.0125 ± 0.026 | 0.001 ± 0.0071 | -0.019 ± 0.0085
SAg:CD40 | -0.025 ± 0.017 | -0.064 ± 0.0057 | -0.172 ± 0.0064 | -0.01 ± 0.034 | -0.0015 ± 0.0064 | -0.0235 ± 0.013 | -0.027 ± 0.011 | -0.0445 ± 0.016 | -0.024 ± 0.016 | -0.023 ± 0.0028 | -0.0155 ± 0.019 | -0.02 ± 0.028 | 0.002 ± 0.0071 | -0.003 ± 0.0071 | -0.012 ± 0.0014 | -0.006 ± 0.058 | -0.005 ± 0.04 | -0.038 ± 0.014
SAg:CD62E/E-Selectin | -0.0155 ± 0.012 | -0.05 ± 0.035 | -0.178 ± 0.034 | -0.0065 ± 0.043 | -0.013 ± 0.0057 | -0.015 ± 0.016 | -0.0225 ± 0.026 | 0.0065 ± 0.00071 | -0.025 ± 0.014 | 0.005 ± 0.04 | -0.0135 ± 0.039 | 0.0155 ± 0.036 | 0.02 ± 0.05 | -0.0115 ± 0.0035 | -0.0035 ± 0.019 | 0 ± 0.011 | 0.0045 ± 0.013 | -0.006 ± 0.0042
SAg:CD69 | -0.028 ± 0.017 | -0.0725 ± 0.019 | -0.217 ± 0.02 | 0.0115 ± 0.00071 | 0.009 ± 0.0014 | 0 ± 0.031 | -0.0425 ± 0.043 | -0.045 ± 0.03 | -0.032 ± 0.037 | 0.025 ± 0.0085 | 0.0175 ± 0.005 | 0.0495 ± 0.026 | -0.0215 ± 0.0064 | -0.0105 ± 0.0064 | -0.0195 ± 0.0035 | -0.0105 ± 0.0035 | 0.013 ± 0.0085 | 0.002 ± 0.0071
SAg:PBMC Cytotoxicity | 0 ± 0.05 | 0.0415 ± 0.021 | 0.121 ± 0.023 | -0.0095 ± 0.0092 | -0.005 ± 0.013 | 0.0345 ± 0.011 | -0.015 ± 0.025 | 0.0035 ± 0.005 | 0.003 ± 0.0099 | 0.018 ± 0.016 | -0.008 ± 0.011 | 0.0425 ± 0.067 | -0.0155 ± 0.029 | 0.0105 ± 0.022 | 0.011 ± 0.027 | -0.0035 ± 0.0078 | 0.0015 ± 0.0035 | -0.005 ± 0.017
